These results are taken from PubChem BioAssay (NCI).

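Exposure lasted 48 hours, with cells grown in 96-well plates and compounds tested at five concentrations. TGI: total growth inhibition.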

Holding throughout (assay): NCI-60 cell line screen, 48 h
For assay [1], the system named is EKVX NSCLC.
The subject of assay [2] is HCT-116 colon.
Assay [3] relates to HOP-62 NSCLC.
Assay [4] has as its system HT29 colon.
The test system of assay [5] is K-562 leukemia.
For assay [6], the system named is LOX IMVI melanoma.
The test system of assay [7] is NCI-H226 lung.
The test system of assay [8] is OVCAR-5 ovarian.
Assay [9] deals with RXF 393 renal.
The subject of assay [10] is SF-268 CNS.
Assay [11] relates to SK-MEL-2 melanoma.
The test system of assay [12] is SK-MEL-28 melanoma.
Assay [13] relates to UACC-62 melanoma.
Assay [14] deals with UO-31 renal.
For assay [15], the system named is A498 renal.
Assay [16] relates to HOP-92 NSCLC.
The test system of assay [17] is PC-3 prostate.
Assay [18] relates to SF-539 CNS.
Assay [19] relates to T-47D breast.
The subject of assay [20] is UACC-257 melanoma.

Take `O=C(c1ccccc1)c1nc2ccc(Cl)cc2c2c1CCCO2`: the TGI in [1], in assay [2], in [3], in [4], in assay [5] and in [6] was more than 100 µM each time. For the same compound, the TGI in assay [7], in assay [8], in assay [9], in assay [10], in [11] and in [12] was more than 100 µM in each case. Moreover, the TGI in assay [13] and in assay [14] was more than 100 µM each time.

For `CC(NC(=O)c1ccc(NP(=O)(OCc2ccc([N+](=O)[O-])o2)N(C)CCCCCl)cc1)c1ccc(OCC2CCCCC2)c(C(N)=O)c1` (stereo not drawn), the TGI was determined as 49.2 µM in [15]; 31.6 µM in assay [2]; 43.4 µM in assay [3]; 20.6 µM in [16]; 44.4 µM in [4]; 83.2 µM in assay [5]. The TGI in assay [6] was 27 µM; in assay [7], 45.1 µM; in assay [8] it was 73.7 µM; in assay [17], more than 100 µM; in assay [9], 31 µM; in assay [10], 36.1 µM. In addition, the TGI in assay [18] amounted to 33.7 µM; in assay [11] it was 49.3 µM; in assay [12] it was 31.6 µM; in assay [19], 25.5 µM; in assay [20] it was 26.6 µM; in assay [13], 26.4 µM. The compound also yielded a TGI in assay [14] of more than 100 µM.

As for `Cc1ccc2c(ccc(/C=C\c3cc(C)c4cccnc4c3O)[n+]2C)c1`, the TGI is 33.9 µM in assay [15]; 75 µM in assay [1]; 19.6 µM in assay [2]; 27.6 µM in assay [3]; more than 100 µM in assay [5]; 56.2 µM in assay [6]. Further, the TGI was 3.98 µM in assay [7]; more than 100 µM in assay [8]; 47.6 µM in [10]; 25.1 µM in assay [18]; 28.4 µM in [20]; 15 µM in assay [13]. Also, the TGI in [14] came to 66 µM.

With `CC(=O)n1cc(OP(=O)(Oc2ccccc2)Oc2ccccc2)c2ccccc21`, the TGI was more than 100 µM in assay [15]; 92.2 µM in assay [2]; more than 100 µM in assay [4]; 67.4 µM in assay [5]; 62.1 µM in assay [6]; more than 100 µM in assay [7]. The TGI in [17] was 31 µM; in [10] it was 81.3 µM; in [18], 42.5 µM; in assay [11] it was 77 µM; in assay [12], 86 µM; in assay [19] it was 80.2 µM. Further, the TGI is 77.2 µM in assay [20], 42.6 µM in [13] and more than 100 µM in assay [14].

As for `Clc1ccc(C[P+]2(c3ccccc3)CCCCC2)cc1`, the TGI in assay [15], in assay [1], in assay [2], in assay [3], in [4] and in assay [5] was more than 100 µM in each case. Moreover, the TGI in assay [6], in assay [7], in assay [8], in assay [9], in [18] and in assay [11] was more than 100 µM throughout. In addition, the TGI was more than 100 µM in [12], 89.5 µM in [20], more than 100 µM in assay [13] and more than 100 µM in [14].

Take `Cc1ccc(C2COc3cc(O)c(O)cc3C2)cc1` (stereo not drawn): the TGI in assay [15] stood at 130 µM; in assay [1] it was 59.8 µM; in assay [2] it was 23.7 µM; in [3], 266 µM; in assay [4], 149 µM; in assay [5], 42.8 µM. The TGI in assay [7] worked out at 235 µM; in [8] it was 244 µM; in assay [9], 26.2 µM; in assay [10], 49.3 µM; in assay [18] it was 68.4 µM; in assay [11] it was 57.3 µM. Also, the TGI was 32.8 µM in assay [12], 69.6 µM in [20], 77.2 µM in [13] and 101 µM in assay [14].

`C[C@]12CC[C@@H]3c4ccc(O)cc4CC[C@H]3[C@@H]1CC[C@@H]2OC(=O)CCc1ccccc1`: the TGI in assay [15] stood at 32.6 µM; in assay [1], 25.4 µM; in assay [2] it was 48.4 µM; in [3], 55.9 µM; in assay [16], 36.8 µM; in assay [4] it was 40.7 µM. In addition, the TGI was 33.9 µM in assay [5]; 39.4 µM in assay [6]; 36.8 µM in [7]; more than 100 µM in [8]; 34.4 µM in assay [17]; 33.6 µM in assay [9]. The TGI in [10] is 35.8 µM; in assay [11], 30.8 µM; in assay [12], 39.2 µM; in assay [19], 37 µM; in [20], 35.2 µM; in [13] it was 28.8 µM. This compound gave a TGI in [14] of 33.8 µM.

Consider `OCc1cc2ccncc2c2c1[nH]c1ccccc12`, for which the TGI in assay [15] is 19.6 µM; in [1], more than 100 µM; in assay [2], 15.7 µM; in [16], 82.5 µM; in assay [4], 22.8 µM; in assay [5] it was more than 100 µM. The TGI is 16.3 µM in assay [6]; 6.71 µM in [7]; 26.7 µM in [8]; 9.77 µM in [9]; 34.2 µM in [10]; 14.8 µM in assay [18]. Further, the TGI in assay [11] was 67.5 µM; in [12], more than 100 µM; in [20], 51.3 µM; in assay [14], 28 µM.
